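Compound exposure: 48 hours, 5 concentrations, 96-well plates. GI50 marks 50% less growth.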 Active and inactive are the calls of the source. No stated cut-off is given here; in the data, active = GI50 up to about 1.1 µM and inactive = higher.
Experiments:
Experiment in all cases: growth of human tumour cells (NCI), 48 h
[1] = test system: OVCAR-8
[2] = test system: K562
[3] = test system: UACC-257
[4] = test system: HT-29
[5] = test system: SF-295
[6] = test system: SR
[7] = test system: UACC-62
[8] = test system: HCT-15
[9] = test system: SN12C
[10] = test system: SK-OV-3
[11] = test system: IGROV-1
[12] = test system: NCI/ADR-RES
[13] = test system: A498
[14] = test system: HOP-62
[15] = test system: SK-MEL-5
[16] = test system: RPMI-8226
[17] = test system: BT-549
[18] = test system: Malme-3M
[19] = test system: U-251
[20] = test system: MDA-MB-231

SMILES	GI50 [1]	GI50 [2]	GI50 [3]	GI50 [4]	GI50 [5]	GI50 [6]	GI50 [7]	GI50 [8] [µM]	GI50 [9]	GI50 [10]	GI50 [11]	GI50 [12]	GI50 [13]	GI50 [14]	GI50 [15]	GI50 [16]	GI50 [17]	GI50 [18]	GI50 [19]	GI50 [20]
CCC(=O)Nc1ccc(N2C(=O)C(Cl)C2c2ccc(SC)cc2)cc1 (stereo not given)	> 100 µM (inactive)	72.9 µM (inactive)	44.9 µM (inactive)	> 100 µM (inactive)	> 100 µM (inactive)	40.6 µM (inactive)	> 100 µM (inactive)	98.2	50.2 µM (inactive)	> 100 µM (inactive)	94.2 µM (inactive)	> 100 µM (inactive)	> 100 µM (inactive)	61.7 µM (inactive)	20.7 µM (inactive)	32.5 µM (inactive)	> 100 µM (inactive)	> 100 µM (inactive)	–	–
CC(C)(Br)C(=O)C(Br)Br	5.27 µM (inactive)	2.95 µM (inactive)	9.84 µM (inactive)	8.17 µM (inactive)	18.7 µM (inactive)	–	10.5 µM (inactive)	–	> 24.4 µM (inactive)	17.5 µM (inactive)	8.22 µM (inactive)	4.82 µM (inactive)	> 39.8 µM (inactive)	> 42.3 µM (inactive)	12.4 µM (inactive)	–	4.9 µM (inactive)	2.01 µM (inactive)	> 28 µM (inactive)	5.56 µM (inactive)
Fc1ccc(C2SCc3nc4ccccc4n32)c(F)c1 (stereo not given)	79.3 µM (inactive)	34.9 µM (inactive)	34.4 µM (inactive)	81.1 µM (inactive)	39.4 µM (inactive)	34.6 µM (inactive)	64.7 µM (inactive)	49.4	> 100 µM (inactive)	> 100 µM (inactive)	> 100 µM (inactive)	–	> 100 µM (inactive)	> 100 µM (inactive)	32.1 µM (inactive)	37.9 µM (inactive)	–	80.4 µM (inactive)	75.5 µM (inactive)	–
CC(=O)NCC1OC2COC(c3ccccc3)OC2C(NC(=O)c2ccccc2)C1OC(=O)c1ccccc1 (stereo not given)	> 100 µM (inactive)	> 100 µM (inactive)	> 100 µM (inactive)	> 100 µM (inactive)	> 100 µM (inactive)	–	> 100 µM (inactive)	> 100	60.3 µM (inactive)	> 100 µM (inactive)	–	> 100 µM (inactive)	44.5 µM (inactive)	> 100 µM (inactive)	> 100 µM (inactive)	–	> 100 µM (inactive)	> 100 µM (inactive)	> 100 µM (inactive)	> 100 µM (inactive)
CN1N=C(c2ccncc2)OC1c1cccc(C(F)(F)F)c1 (stereo not given)	> 100 µM (inactive)	96.8 µM (inactive)	> 100 µM (inactive)	> 100 µM (inactive)	> 100 µM (inactive)	–	> 100 µM (inactive)	> 100	> 100 µM (inactive)	> 100 µM (inactive)	> 100 µM (inactive)	> 100 µM (inactive)	> 100 µM (inactive)	> 100 µM (inactive)	> 100 µM (inactive)	> 100 µM (inactive)	–	–	> 100 µM (inactive)	41.2 µM (inactive)
COc1ccccc1/C=C1\Sc2scc(-c3ccc(O)c(O)c3)[n+]2C1=O	39.9 µM (inactive)	9.51 µM (inactive)	26.3 µM (inactive)	21.4 µM (inactive)	24.9 µM (inactive)	6.67 µM (inactive)	16.7 µM (inactive)	16.5	22.5 µM (inactive)	21.4 µM (inactive)	15.9 µM (inactive)	27.3 µM (inactive)	–	29.7 µM (inactive)	18.1 µM (inactive)	13.8 µM (inactive)	17.8 µM (inactive)	–	27.8 µM (inactive)	20 µM (inactive)
CCC1(c2ccc(N3C(=O)c4cccc5cc([N+](=O)[O-])cc(c45)C3=O)cc2)CCC(=O)NC1=O (stereo not given)	12 µM (inactive)	17.1 µM (inactive)	47.6 µM (inactive)	20.5 µM (inactive)	15.9 µM (inactive)	–	21 µM (inactive)	31	6.05 µM (inactive)	15 µM (inactive)	5.4 µM (inactive)	17 µM (inactive)	10.1 µM (inactive)	9.12 µM (inactive)	90.4 µM (inactive)	11.6 µM (inactive)	13.5 µM (inactive)	20.1 µM (inactive)	9.84 µM (inactive)	5.16 µM (inactive)
CCc1n[nH]c(=O)n1CCO	> 100 µM (inactive)	> 100 µM (inactive)	> 100 µM (inactive)	> 100 µM (inactive)	> 100 µM (inactive)	–	> 100 µM (inactive)	> 100	> 100 µM (inactive)	> 100 µM (inactive)	> 100 µM (inactive)	> 100 µM (inactive)	> 100 µM (inactive)	–	> 100 µM (inactive)	> 100 µM (inactive)	> 100 µM (inactive)	–	> 100 µM (inactive)	> 100 µM (inactive)

Source: ChEMBL document CHEMBL1201862, “PubChem BioAssay data set” (2004)
